From patent US20250304594A1, “METHYL (R)-2-(FLUOROMETHYL)-5-OXO-4-PHENYL-4,5,6,7-TETRAHYDRO-1H-CYCLOPENTA[B]PYRIDINE-3-CARBOXYLATE AND METHYL (R)-2-(FLUOROMETHYL)-5-OXO-4-PHENYL-1,4,5,7-TETRAHYDROFURO[3,4-B]PYRIDINE-3-CARBOXYLATE AS Cav1,2 ACTIVATORS” (Novartis AG, priority 2020, published 2025)
Each block holds one compound with its values, some of them ahead of it.

Tests used:
human CaV1.2 [1] = biological target: T1, human CaV1.2 (Homo sapiens, UniProt Q13936); assay: Sophion QPatch dose-response assay, whole-cell voltage clamp of barium currents in CaV1.2-HEK293(AUX) cells; format: cell-based; conditions: Table 10 comparative examples; maximal fold change of peak inward current
T1 construct: expressed in transfected cells; host or cells: Flp-In 293 T-Rex (HEK293), monoclonal CaV1.2-HEK293(AUX) clone 2-19B; doxycycline-induced auxiliary subunits
T1 sequence (Q13936 1-2138 isoform Q13936-23): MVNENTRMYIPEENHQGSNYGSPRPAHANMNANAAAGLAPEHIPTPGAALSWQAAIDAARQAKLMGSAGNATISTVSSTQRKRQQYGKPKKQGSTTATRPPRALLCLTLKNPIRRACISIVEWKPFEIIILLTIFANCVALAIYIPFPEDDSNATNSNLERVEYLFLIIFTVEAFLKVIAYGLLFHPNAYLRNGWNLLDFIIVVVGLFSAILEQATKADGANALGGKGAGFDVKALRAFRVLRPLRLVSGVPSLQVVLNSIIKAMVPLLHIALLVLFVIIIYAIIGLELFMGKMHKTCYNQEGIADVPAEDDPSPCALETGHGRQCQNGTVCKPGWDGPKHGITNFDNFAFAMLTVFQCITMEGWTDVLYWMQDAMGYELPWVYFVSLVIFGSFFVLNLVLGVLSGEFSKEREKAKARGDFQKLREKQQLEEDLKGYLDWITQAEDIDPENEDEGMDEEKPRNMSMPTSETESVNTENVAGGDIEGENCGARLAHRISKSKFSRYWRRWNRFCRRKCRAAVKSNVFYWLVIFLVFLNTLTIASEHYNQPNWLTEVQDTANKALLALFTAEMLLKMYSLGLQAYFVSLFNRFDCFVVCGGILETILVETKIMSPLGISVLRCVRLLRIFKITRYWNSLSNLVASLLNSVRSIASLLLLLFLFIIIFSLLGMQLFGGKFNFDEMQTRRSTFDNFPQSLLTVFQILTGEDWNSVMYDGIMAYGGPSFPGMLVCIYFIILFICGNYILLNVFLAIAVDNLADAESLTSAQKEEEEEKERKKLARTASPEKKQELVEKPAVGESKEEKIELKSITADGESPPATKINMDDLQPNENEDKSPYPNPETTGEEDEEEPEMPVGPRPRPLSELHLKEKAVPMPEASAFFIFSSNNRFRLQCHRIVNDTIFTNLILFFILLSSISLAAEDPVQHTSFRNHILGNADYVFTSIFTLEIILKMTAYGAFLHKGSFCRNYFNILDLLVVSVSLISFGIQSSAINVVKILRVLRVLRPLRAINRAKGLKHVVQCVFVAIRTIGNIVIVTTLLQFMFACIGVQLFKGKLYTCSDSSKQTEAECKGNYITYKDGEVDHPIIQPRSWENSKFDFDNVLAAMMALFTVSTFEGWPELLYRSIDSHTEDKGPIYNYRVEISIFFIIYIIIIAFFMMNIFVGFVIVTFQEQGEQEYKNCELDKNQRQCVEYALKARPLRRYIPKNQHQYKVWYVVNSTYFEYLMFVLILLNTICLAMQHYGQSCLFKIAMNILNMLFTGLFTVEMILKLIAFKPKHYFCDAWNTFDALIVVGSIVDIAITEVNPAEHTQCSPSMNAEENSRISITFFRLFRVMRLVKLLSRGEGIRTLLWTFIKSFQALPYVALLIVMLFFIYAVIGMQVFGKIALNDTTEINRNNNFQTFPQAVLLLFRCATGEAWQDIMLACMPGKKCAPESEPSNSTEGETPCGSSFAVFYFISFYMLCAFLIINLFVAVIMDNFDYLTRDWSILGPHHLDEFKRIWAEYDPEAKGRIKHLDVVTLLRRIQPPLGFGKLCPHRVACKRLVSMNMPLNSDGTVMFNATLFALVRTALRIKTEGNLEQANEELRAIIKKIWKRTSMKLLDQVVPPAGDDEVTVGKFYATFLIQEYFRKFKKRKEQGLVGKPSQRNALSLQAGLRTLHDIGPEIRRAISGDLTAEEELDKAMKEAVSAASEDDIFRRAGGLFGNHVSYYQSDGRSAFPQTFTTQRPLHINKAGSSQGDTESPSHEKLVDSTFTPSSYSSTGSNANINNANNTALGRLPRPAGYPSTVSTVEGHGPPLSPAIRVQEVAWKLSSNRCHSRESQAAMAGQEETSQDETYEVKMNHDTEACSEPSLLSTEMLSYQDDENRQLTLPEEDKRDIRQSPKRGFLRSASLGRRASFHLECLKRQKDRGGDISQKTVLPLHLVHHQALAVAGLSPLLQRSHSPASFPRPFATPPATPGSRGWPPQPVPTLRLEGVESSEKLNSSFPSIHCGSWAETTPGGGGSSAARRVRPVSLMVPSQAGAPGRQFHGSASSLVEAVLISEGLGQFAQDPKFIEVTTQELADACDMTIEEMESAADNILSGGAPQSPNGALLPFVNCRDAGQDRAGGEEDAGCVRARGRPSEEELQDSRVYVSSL
T1 sequence (Q9NY47 19-1001 partner limits assumed): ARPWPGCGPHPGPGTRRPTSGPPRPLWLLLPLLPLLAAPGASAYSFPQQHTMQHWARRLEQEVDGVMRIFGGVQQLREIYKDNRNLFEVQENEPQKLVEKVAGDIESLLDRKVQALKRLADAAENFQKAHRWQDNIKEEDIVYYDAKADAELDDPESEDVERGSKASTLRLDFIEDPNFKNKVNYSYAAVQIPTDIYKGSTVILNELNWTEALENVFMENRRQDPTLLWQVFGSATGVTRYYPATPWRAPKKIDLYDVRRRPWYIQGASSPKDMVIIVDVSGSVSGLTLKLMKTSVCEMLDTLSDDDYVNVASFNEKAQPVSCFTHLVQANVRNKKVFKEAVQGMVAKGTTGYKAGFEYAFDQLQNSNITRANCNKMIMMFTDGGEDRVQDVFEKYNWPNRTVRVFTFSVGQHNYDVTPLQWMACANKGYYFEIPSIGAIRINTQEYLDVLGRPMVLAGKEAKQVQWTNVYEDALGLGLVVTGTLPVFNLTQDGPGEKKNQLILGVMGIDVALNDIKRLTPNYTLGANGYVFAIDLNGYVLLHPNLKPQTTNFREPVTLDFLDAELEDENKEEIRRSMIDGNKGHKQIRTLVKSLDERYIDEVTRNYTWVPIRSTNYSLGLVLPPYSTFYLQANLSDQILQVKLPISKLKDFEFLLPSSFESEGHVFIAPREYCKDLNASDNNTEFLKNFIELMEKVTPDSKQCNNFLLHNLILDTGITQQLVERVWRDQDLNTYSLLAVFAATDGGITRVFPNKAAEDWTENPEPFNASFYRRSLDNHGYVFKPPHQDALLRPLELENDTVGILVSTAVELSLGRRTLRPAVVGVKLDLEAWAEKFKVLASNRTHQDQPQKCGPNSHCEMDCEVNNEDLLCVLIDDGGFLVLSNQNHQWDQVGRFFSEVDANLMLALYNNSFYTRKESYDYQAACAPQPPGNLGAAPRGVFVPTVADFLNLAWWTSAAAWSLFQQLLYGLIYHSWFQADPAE
T1 sequence (Q9NY47 1002-1150 partner limits assumed): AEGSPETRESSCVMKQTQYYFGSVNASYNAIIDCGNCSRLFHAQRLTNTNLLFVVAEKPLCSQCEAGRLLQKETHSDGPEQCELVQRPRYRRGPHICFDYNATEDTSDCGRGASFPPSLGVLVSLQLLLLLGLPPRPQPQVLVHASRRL
T1 sequence (Q08289 whole entry partner): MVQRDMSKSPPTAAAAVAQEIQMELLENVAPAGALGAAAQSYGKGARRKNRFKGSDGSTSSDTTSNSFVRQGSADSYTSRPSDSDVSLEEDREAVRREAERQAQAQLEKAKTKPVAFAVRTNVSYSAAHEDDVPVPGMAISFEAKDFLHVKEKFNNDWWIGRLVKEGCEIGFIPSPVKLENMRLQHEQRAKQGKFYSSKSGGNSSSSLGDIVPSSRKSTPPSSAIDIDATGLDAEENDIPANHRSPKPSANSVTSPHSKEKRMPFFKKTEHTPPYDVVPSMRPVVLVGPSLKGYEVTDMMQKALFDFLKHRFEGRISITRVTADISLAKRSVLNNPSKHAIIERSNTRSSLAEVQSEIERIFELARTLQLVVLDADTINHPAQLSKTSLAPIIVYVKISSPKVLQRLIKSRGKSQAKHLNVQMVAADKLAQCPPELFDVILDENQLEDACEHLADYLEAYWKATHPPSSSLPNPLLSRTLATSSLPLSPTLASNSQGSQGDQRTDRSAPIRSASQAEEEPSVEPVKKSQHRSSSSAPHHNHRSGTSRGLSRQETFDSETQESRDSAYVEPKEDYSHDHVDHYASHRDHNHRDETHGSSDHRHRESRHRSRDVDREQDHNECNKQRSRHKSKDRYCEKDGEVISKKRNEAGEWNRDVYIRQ
Text: (§1) The monoclonal CaV1.2-HEK293(AUX) cell line constitutively expresses human CaV1.2 alpha1C (α1C) subunit (CACNA1C) and has doxycycline-inducible expression of the alpha2delta (α2Δ2) auxiliary subunit (CACNA2D2) and beta2 (02) auxiliary subunit (CACNB2). To generate the cell line, expression vectors pcDNA5.0/FRT-TO-CACNA2D2-FCS-P2A-CACNB2 and pCMV6-entry-CACNA1C were established via gene synthesis and cloning. Here, pcDNA5.0/FRT-TO plasmid is from Invitrogen, pCMV6-entry is from Origene, FCS stands for Furin Cleavage Site, P2A is a peptide self-cleavage sequence derived from porcine teschovirus-1, and FRT is the Flippase recognition target site. Next, parental line Flp-In™ 293 T-Rex (Invitrogen) was transfected with pcDNA5.0/FRT-TO-CACNA2D2-FCS-P2A-CACNB2 and Flippase vector pOG44 (Invitrogen) to establish targeted integration of the CACNA2D2-FCS-P2A-CACNB2 expression cassette into the pre-engineered FRT site in Flp-In™ 293 T-Rex. This intermediate cell line was then transfected with pCMV6-entry-CACNA1C to establish stable CACNA1C expression. Clonal isolation was achieved under Neomycin selection.
Electrophysiological Characterization of CaV1.2 Activators Using CaV1.2-HEK293(AUX) Cell Line and QPatch
(§2) 24 hours prior an electrophysiology experiment, doxycycline (1 μg/ml) was added to the growth medium (Table 6), and 25 μM of verapamil was co-applied to prevent calcium influx triggered cell death. Cell confluency should reach 70%-80% right before the experiment. To harvest cells (from a T175 cm^2 flask as an example), growth media were removed completely, and the cells were rinsed with 10 mL of D-PBS. D-PBS was aspirated, and 10 mL of Detachin (Genlantis) was added and the plate was placed in a 37° C. incubator for 10 minutes. Detached cells were placed into a 15 mL conical tube and spun at 1000 rpm for 2 minutes. Supernatant was removed, and cells were re-suspended in QPatch complete media (Table 7) to desired cell density of 1.5-3 million cells per QPatch run. Each experimental run uses 1.5 mL of cells.
(§3) The cells suspension was taken to the Sophion QPatch platform that uses whole-cell voltage clamp to measure barium currents conducted through CaV1.2 on single-hole QPlates. Extracellular and intracellular patch clamp solutions are described in Tables 7 and 8, respectively. A dose-response assay protocol was used to determine the maximal fold change of peak inward current (Emax) and potency (EC50) of each compound. The protocol had eight liquid periods. The first liquid period was to stabilize current amplitude, which was monitored using repetitive 200-ms voltage pulses stepping from −80 mV to 0 mV. The second liquid period was to determine baseline current amplitude in the presence of vehicle control, using a single 20-ms voltage pulse stepping from −80 mV to 0 mV. The third through eighth liquid periods were used to ascertain a 6-dose response to compound treatments, also using single 20-ms voltage pulses stepping from −80 mV to 0 mV. The EC50 was generated using the following equation Iconcentration=Ibase+(Ifull−Ibase)*c^n/(XC50^n+c^n), where c is the concentration and n is the Hill coefficient constant. Ifull is the maximal current achievable, and Ibase is 0. A channel biophysics assay protocol was used to determine channel gating properties including current-voltage relationship (IV curves), half-way channel activation voltage (V1/2), rate of channel inactivation (tau), and amplitude of tail current. Among these, V1/2 was derived from fitting equation G(V)=Gvmin+(Gvmax−Gvmin)/(1+exp(−(V−V½)/Vslope)), where G stands for conductance, Gvmin equals 0, Gvmax is the maximal conductance, and Vslope is a slope factor. G(V) was pre-calculated from equation G(V)=I(V)/(V−0.06), for each experimentally applied depolarization potential (V) and the corresponding current amplitude (I(V)), and 0.06 in the equation was the experimentally determined reversal potential in volts. The protocol had four liquid periods.

human CaV1.2 [2] = biological target: T1, human CaV1.2; assay: QPatch channel biophysics assay (channel gating, V1/2 of activation, inactivation) in CaV1.2-HEK293(AUX) cells; format: cell-based; conditions: Table 10 comparative examples
Text: as §1, with “selection. A cell clone (2-19B) with good voltage-dependent Barium current (see electrophysiology methods below) was selected for characterization of CaV1.2 activators.” for “selection.”
as §2
as §3, with “The protocol had four liquid periods.” left out

[3] = Compound exposure in wild-type mice (brain and blood levels); format: in vivo, C57BL/6J male mice; conditions: male, C57BL/6J, mouse, brain (cerebellum) / blood, intraperitoneal, Table 10 comparative examples; read-out: Brain:blood ratio
Method: Compound administration and brain tissue collection. Wild-type C57BL/6J male mice were obtained from Jackson laboratories (Bar Harbor, ME). The acute, single-dose effects of CaV1.2 activators of the present disclosure were evaluated in male eight-week old mice (n=6 mice per compound). Each compound was dissolved in 10% PEG300, 10% Solutol, 10% Cremophore EL, and 70% Phosphate Buffered Saline and administered intraperitoneal (i.p.) at a concentration of 1 mg/kg up to 30 mg/kg depending on the compound. Animals were euthanized one hour after compound administration via exsanguination under deep anesthesia. Blood was collected in EDTA tubes for downstream analysis of drug levels. Brains were rapidly removed from the skull, and the cerebral cortex and cerebellum were regionally dissected. Cerebellar samples were snap frozen in liquid nitrogen to assess compound exposure. Cortical samples for cFos assessment were placed in 500 μl of RNAlater solution (ThermoFisher) to preserve the integrity of RNA in the sample. Samples remained in RNAlater for at least 24 hours at 4° C. before moving to −80° C. for storage before processing.
Quantification of compound exposure. Cerebellar tissue samples were homogenized in 4 ml of 20% acetonitrile and 80% Phosphate buffered saline for every 1 g of tissue (5× dilution). Tissue was homogenized using either of the following three methods: hand held probe system, TissueLyser system with 5 mm steel bead at a frequency of 30 s^−1 for 4 min, or OMNI Bead Ruptor Elite homogenizer for 30 seconds to 1 minute depending on tissue type. Tissue samples were added to a 96-well plate (12.5 uL sample) and processed for quantification by mass spectrometry.

[4] = Hygroscopicity / water sorption of crystalline hydrates versus relative humidity; format: physicochemical

Kp at 1 h [3]: 0.23
SMILES: CCOC(=O)C1=C(C)NC2=C(C(=O)OC2)[C@H]1c1ccccc1OC(F)F (single isomer, unassigned) [CGP028392, reference compound]
Qpatch Emax (human CaV1.2 [1]): 2.2
Biophysics voltage shift (mV) (human CaV1.2 [2]): −6.7 mV

hygroscopicity [4]: slightly hygroscopic
water uptake ([4]; between 10% to 95% RH at 25° C.): about 0.2%
SMILES: COC(=O)C1=C(CF)NC2=C(C(=O)OC2)[C@H]1c1cccc(F)c1[C@@H](C)F [Hydrate A, methyl (R)-4-(3-fluoro-2-((R)-1-fluoroethyl)phenyl)-2-(fluoromethyl)-5-oxo-1,4,5,7-tetrahydrofuro[3,4-b]pyridine-3-carboxylate]

water uptake upon subsequent increase of the relative humidity ([4]; 25° C.): about 3%
loss of water on dehydration ([4]; starts below 20% RH, until 0% RH): about 4.4%
SMILES: COC(=O)C1=C(CF)NC2=C(C(=O)OC2)[C@H]1c1cccc(F)c1[C@@H](C)F [Hydrate B, methyl (R)-4-(3-fluoro-2-((R)-1-fluoroethyl)phenyl)-2-(fluoromethyl)-5-oxo-1,4,5,7-tetrahydrofuro[3,4-b]pyridine-3-carboxylate]
